Reference: ChEMBL document CHEMBL1201862, “PubChem BioAssay data set” (2004)
Activity calls are given as the source filed them.

Columns and labels:
[1] = biological target: T1, Ubiquitin-conjugating enzyme E2 N (Homo sapiens, UniProt P61088); format: functional
T1 sequence (P61088 whole entry): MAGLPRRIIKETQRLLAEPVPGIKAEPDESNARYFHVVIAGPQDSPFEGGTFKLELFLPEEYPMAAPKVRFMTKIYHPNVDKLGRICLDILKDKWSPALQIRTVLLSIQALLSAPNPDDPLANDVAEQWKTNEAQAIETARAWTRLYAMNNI

[2] = biological target: T2, Apoptotic protease-activating factor 1 (Homo sapiens, UniProt O14727); format: functional
T2 sequence (O14727 whole entry): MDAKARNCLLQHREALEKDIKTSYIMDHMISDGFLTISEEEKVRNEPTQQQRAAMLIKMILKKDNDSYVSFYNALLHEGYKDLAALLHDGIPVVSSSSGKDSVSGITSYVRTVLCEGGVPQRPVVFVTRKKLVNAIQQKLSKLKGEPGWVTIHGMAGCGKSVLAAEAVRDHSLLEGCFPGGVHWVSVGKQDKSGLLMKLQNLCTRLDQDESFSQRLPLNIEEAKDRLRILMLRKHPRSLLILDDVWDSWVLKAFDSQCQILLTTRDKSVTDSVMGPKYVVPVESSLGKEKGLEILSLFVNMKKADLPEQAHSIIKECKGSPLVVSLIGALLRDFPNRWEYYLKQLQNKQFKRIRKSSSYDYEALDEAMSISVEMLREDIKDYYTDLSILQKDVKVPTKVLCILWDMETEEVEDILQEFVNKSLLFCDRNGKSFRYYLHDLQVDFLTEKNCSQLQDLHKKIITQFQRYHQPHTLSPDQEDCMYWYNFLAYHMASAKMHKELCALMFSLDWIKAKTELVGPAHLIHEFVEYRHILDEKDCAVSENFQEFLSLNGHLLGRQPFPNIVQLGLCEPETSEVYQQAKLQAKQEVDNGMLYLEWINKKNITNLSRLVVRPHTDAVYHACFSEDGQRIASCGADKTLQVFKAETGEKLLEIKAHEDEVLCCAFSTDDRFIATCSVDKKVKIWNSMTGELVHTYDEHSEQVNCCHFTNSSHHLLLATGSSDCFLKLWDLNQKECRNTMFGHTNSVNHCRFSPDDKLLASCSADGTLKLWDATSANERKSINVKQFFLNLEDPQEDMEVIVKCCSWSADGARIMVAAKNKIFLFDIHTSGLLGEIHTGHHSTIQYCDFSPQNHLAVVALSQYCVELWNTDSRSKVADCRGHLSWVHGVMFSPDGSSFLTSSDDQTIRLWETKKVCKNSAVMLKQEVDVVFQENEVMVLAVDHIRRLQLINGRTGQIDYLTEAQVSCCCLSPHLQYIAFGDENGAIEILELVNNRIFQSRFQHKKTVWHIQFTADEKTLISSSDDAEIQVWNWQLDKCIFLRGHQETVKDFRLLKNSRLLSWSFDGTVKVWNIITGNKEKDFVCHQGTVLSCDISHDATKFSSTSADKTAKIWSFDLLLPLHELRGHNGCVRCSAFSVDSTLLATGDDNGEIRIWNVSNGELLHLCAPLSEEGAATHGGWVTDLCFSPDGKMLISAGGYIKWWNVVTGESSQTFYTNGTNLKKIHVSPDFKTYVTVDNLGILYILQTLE

[3] = biological target: T3, CAAX prenyl protease 2 (Saccharomyces cerevisiae S288c, UniProt Q03530); format: biochemical
T3 sequence (Q03530 whole entry): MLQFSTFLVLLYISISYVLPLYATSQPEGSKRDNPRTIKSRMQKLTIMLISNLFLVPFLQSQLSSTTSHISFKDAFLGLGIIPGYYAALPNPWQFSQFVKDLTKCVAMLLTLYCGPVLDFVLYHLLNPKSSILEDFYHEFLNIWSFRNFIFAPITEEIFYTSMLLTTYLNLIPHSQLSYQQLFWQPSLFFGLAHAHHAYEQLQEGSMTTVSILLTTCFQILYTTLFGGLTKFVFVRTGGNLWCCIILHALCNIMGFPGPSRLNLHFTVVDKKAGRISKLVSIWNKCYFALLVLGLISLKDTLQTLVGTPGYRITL

[4] = biological target: Heat shock protein HSP 90-alpha (Homo sapiens, UniProt P07900); format: functional, organism-based
[5] = nonselective inhibitors of cellular cAMP signaling, dose response, counter-screen for MC4R biased antagonist project, cell-based, TR-FRET cAMP detection (AID 602305); format: functional;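 further: U2OS cells stimulated with forskolin near its EC80 as the cAMP inducer; potency is for inhibition of forskolin-stimulated cAMP signaling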
[6] = test system: HEK293; assay: NOD1 signaling inhibitors, primary screen, cell-based, luminescence, uHTS (AID 1578); format: functional; conditions: Homo sapiens
[7] = test system: HEK293; assay: cells; format: functional, cell-based; conditions: Homo sapiens
[8] = biological target: T4, Heat shock factor protein 1 (Mus musculus, UniProt P38532); assay: inhibition of MG132-induced HSE-luciferase signal, confirmation, cell-based, NIH3T3, luminescence, dose retest (AID 2382); format: functional;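 further: NIH3T3 fibroblasts with HSF1-driven luciferase reporter stressed by proteasome inhibitor MG132; luminescence from HSF1-driven luciferase expression after 8 hours of MG132 stress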
T4 sequence (P38532 whole entry): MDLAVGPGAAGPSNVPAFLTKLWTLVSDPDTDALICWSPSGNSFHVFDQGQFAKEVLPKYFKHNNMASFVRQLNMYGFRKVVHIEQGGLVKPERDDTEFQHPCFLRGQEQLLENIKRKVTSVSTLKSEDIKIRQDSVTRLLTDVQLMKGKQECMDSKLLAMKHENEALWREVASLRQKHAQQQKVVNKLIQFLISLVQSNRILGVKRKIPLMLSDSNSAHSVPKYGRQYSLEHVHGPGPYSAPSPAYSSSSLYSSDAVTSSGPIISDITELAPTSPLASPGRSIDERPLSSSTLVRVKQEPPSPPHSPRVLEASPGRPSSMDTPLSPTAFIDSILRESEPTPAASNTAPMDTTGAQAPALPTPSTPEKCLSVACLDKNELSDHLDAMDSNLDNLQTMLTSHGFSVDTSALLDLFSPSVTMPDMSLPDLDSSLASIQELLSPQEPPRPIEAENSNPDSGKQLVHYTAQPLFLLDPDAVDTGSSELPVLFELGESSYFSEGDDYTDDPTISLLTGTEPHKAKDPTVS

[9] = biological target: Nucleotide-binding oligomerization domain-containing protein 2 (Homo sapiens, UniProt Q9HC29); assay: NOD2 signaling inhibitors, cell-based, luminescence, uHTS, HEK293 (AID 1566); format: functional
Sequence of Nucleotide-binding oligomerization domain-containing protein 2 (Q9HC29 whole entry, the tested form may be a part): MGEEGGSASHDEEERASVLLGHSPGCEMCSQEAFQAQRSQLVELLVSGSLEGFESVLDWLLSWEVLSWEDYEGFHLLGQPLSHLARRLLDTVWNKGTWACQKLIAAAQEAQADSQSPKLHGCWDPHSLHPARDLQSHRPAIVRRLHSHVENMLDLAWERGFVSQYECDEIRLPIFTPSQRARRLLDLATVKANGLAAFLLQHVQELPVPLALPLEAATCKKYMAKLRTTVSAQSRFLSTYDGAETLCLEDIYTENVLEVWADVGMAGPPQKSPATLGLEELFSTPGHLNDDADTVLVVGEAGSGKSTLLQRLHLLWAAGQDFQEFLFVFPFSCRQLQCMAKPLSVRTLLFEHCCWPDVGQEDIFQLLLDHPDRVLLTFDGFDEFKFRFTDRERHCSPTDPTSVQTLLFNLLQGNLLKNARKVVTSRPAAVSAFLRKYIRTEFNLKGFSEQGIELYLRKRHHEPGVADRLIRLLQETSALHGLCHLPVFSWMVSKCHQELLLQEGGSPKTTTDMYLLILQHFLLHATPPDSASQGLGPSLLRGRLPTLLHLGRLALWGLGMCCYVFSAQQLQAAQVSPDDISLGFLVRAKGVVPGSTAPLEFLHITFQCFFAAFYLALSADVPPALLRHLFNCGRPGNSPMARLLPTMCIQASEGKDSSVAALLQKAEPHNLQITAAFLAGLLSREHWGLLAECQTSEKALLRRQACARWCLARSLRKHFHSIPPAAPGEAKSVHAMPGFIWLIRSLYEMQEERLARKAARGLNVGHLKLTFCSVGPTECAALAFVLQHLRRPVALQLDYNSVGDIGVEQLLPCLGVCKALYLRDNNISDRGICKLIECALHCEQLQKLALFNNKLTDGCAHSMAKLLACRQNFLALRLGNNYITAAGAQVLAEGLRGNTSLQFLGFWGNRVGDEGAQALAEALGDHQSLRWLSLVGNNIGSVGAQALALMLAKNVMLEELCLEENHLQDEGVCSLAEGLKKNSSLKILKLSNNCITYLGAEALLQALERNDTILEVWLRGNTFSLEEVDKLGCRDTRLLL

[10] = growth suppression of beta-catenin-knockout colon cells, dose response, cell-based, HCT116, human colon tumor (AID 1045); format: functional;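 further: HCT116 colon tumor cells with beta catenin knocked out; cells exposed to compound for 60 hours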
[11] = biological target: Neurotensin receptor type 1 (Homo sapiens, UniProt P30989); format: functional;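 further: Image-based confirmatory dose-response assay measuring agonist activity at NTR1; NTR1-expressing U2OS osteosarcoma cells imaged for beta-arrestin GFP spot formation; agonist potency where compounds increase beta-arrestin recruitment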
Sequence of Neurotensin receptor type 1 (P30989 whole entry, the tested form may be a part): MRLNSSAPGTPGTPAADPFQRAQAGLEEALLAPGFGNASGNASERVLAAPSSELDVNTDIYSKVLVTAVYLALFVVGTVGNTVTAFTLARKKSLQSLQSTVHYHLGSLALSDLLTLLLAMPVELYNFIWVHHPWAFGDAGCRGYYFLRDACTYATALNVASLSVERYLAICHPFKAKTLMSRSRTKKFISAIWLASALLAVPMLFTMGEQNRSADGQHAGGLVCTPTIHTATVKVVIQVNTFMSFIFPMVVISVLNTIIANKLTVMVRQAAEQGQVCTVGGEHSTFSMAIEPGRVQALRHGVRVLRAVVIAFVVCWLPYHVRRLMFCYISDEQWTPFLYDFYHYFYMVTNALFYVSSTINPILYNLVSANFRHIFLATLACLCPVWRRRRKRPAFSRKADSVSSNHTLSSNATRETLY

[12] = biological target: T5, Fatty acid synthase (Homo sapiens, UniProt P49327); assay: FAS thioesterase domain inhibitors, dose response, biochemical, endpoint fluorescence intensity, uHTS hits (AID 624327); format: functional;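 further: fluorescence from hydrolysis of an O-methyl fluorescein acyl ester substrate by the enzyme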
T5 sequence (P49327 whole entry, the tested form may be a part): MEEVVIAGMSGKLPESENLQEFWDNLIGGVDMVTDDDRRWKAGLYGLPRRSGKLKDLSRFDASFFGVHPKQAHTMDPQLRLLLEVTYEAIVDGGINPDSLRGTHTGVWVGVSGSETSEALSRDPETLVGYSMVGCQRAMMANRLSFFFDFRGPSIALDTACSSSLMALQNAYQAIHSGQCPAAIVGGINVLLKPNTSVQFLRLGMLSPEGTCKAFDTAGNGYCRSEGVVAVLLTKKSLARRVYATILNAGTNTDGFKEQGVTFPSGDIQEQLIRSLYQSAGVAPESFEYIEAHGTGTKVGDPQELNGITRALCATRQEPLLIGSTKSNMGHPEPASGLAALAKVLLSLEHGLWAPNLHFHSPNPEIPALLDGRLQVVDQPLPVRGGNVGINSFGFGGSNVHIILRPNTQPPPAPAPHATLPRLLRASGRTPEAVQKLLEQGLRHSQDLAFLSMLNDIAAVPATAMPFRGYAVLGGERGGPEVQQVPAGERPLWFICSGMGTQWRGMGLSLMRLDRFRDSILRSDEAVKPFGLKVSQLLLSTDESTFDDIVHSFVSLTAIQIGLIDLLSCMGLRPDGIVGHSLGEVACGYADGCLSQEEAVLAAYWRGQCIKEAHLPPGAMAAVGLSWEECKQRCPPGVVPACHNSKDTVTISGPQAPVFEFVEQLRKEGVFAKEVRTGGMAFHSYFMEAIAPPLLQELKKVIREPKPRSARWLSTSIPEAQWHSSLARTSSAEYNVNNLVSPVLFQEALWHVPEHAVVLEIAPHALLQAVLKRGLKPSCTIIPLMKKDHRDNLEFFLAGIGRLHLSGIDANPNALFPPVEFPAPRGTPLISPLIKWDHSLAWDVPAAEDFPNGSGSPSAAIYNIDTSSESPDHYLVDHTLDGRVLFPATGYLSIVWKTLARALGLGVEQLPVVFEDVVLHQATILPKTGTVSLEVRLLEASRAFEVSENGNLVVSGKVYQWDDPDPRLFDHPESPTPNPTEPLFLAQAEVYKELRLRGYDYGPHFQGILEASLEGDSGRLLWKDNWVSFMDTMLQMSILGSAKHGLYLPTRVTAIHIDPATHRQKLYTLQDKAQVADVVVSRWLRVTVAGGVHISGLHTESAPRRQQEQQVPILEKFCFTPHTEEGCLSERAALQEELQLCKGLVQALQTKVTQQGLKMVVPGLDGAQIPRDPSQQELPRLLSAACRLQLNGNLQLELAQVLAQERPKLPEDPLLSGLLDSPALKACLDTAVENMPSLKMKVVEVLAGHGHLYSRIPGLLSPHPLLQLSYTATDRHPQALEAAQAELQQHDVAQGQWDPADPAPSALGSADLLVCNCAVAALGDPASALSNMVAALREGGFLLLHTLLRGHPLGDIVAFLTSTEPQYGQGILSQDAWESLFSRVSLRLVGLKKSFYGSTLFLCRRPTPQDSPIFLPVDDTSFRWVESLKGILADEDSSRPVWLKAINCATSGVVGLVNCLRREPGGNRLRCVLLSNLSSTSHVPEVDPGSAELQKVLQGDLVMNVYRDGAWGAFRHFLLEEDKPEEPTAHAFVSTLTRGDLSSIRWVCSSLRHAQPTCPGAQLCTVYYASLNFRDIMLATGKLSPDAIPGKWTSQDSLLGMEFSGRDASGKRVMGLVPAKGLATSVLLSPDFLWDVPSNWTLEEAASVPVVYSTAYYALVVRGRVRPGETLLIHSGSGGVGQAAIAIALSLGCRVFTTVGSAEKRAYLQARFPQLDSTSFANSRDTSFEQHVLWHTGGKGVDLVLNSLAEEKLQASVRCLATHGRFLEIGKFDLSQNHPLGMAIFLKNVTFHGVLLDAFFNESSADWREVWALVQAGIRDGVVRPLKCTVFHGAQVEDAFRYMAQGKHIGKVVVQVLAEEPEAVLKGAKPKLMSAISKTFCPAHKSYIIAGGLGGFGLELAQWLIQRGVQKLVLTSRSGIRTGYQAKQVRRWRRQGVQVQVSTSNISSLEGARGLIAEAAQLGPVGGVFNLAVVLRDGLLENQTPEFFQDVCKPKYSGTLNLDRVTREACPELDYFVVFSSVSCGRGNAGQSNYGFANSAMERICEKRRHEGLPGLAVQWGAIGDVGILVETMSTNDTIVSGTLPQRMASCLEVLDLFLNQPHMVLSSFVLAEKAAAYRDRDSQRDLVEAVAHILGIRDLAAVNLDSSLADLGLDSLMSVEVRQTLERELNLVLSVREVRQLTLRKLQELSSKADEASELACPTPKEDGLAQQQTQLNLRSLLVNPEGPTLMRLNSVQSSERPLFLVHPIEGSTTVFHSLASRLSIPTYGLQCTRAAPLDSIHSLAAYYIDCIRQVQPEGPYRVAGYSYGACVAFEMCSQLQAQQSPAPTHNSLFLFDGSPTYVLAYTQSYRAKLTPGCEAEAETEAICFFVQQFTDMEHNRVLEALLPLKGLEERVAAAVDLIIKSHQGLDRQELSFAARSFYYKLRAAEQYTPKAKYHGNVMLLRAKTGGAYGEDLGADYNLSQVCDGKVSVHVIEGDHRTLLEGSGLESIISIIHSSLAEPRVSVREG

[13] = biological target: T5, Fatty acid synthase; assay: FAS thioesterase domain inhibitors, dose response, biochemical, kinetic fluorescence intensity (AID 624326); format: functional;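 further: rate of fluorescence rise from hydrolysis of a fluorogenic O-methyl fluorescein ester substrate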
[14] = biological target: Paired box protein Pax-8 (Homo sapiens, UniProt Q06710); assay: inhibitors of PAX8-driven TPO luciferase reporter, dose response, RMG-I cells, cherry-pick (AID 687027); format: functional, cell-based;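 further: luciferase reporter driven by Pax8 target thyroperoxidase promoter measured by SteadyGlo luminescence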
Sequence of Paired box protein Pax-8 (Q06710 whole entry): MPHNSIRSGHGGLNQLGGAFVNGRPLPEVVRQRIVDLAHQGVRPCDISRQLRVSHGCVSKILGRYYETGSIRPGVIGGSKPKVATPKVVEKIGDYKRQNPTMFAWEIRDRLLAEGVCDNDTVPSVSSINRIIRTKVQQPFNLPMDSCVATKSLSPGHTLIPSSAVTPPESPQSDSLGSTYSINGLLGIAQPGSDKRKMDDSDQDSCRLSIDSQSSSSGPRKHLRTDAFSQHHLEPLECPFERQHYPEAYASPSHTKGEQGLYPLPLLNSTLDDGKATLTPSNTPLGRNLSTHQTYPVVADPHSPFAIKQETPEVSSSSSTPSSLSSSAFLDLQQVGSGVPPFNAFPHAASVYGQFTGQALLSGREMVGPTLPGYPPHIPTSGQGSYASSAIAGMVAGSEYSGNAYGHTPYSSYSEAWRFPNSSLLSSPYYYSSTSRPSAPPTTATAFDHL

COc1cc(/C=C/c2cc[n+](C)cc2)ccc1OCC(=O)Nc1ccc(Cl)c(Cl)c1
active: IC50 [1] 7.74 µM | IC50 [2] 22.6 µM

CCCCCCCCCC[N+](C)(C)CC/C=C1/c2ccccc2Sc2ccc(Cl)cc21
active: AC50 [3] 4.96 µM | IC50 [1] 3.77 µM | AC50 [4] 8.12 µM | IC50 [2] 10.6 µM
inactive: IC50 [5] 22.6 µM

O=C(NCCc1ccccc1)C(c1cccs1)N(C(=O)CCl)c1ccc(Cl)cc1 (stereo unspecified)
active: EC50 [6] 5.3 µM | IC50 [7] 4.24 µM | EC50 [8] 1.28 µM | EC50 [10] 2.62 µM | EC50 [11] 2.5 µM | IC50 [12] 7.91 µM | IC50 [13] 10.3 µM | AC50 [14] 2.84 µM
inactive: EC50 [9] > 20 µM
